Columns and labels:
Assay type in all cases: physicochemical
[1] = Polymorphic stability on heating; settings: heated to about 100° C. over about 30 minutes
Source text: (§1) Crystalline Form ACB3 of Acalabrutinib may have advantageous properties as described herein above.

[2] = Polymorphic stability towards grinding
Source text: as §1

[3] = Polymorphic stability on storage at defined temperature and relative humidity
Source text: as §1

CC#CC(=O)N1CCC[C@H]1c1nc(-c2ccc(C(=O)Nc3ccccn3)cc2)c2c(N)nccn12 [Form ACB3, 4-{8-Amino-3-[(2S)-1-(2-butynoyl)-2-pyrrolidinyl]imidazo[1,5-a]pyrazin-1-yl}-N-(2-pyridinyl)benzamide]
polymorphically stable: polymorphic stability when heated [1] | polymorphic stability towards solvent grinding ([2]; solvent grinding) | polymorphic stability towards strong dry grinding ([2]; strong dry grinding) | polymorphic stability on storage ([3]; 40° C., RH of about 75%, at least 1 month) | polymorphic stability on storage ([3]; room temperature, RH of about 60%, at least 1 month) | polymorphic stability on storage ([3]; room temperature, RH of about 80%, at least 7 days)

Source: patent US20220153744A1, “SOLID STATE FORMS OF ACALABRUTINIB” (ASSIA CHEMICAL INDUSTRIES LTD., priority 2019, published 2022)
